Measured values taken from patent US5294609A, “DNA gyrase inhibitors and pharmaceutical preparations therefor” (Hoffmann-LaRoche Inc., priority 1991, dated 1994).
Values after ≈ are worked out from the molar mass of the structure shown.

Experiments:
[1] = target: T1, DNA gyrase (Escherichia coli, UniProt P0AES6); assay: Inhibition of DNA gyrase activity (DNA gyrase supercoiling assay); type: biochemical, E. coli H560; conditions: relaxed PUC18 substrate
T1 construct: supercoiling of relaxed pUC18 plasmid
Experimental: The inhibition of DNA gyrase activity was measured using a DNA gyrase supercoiling assay according to R. Otter & N. Cozzarelli:Methods in Enzymology, Vol. 100, pp 171-180 (1983). DNA gyrase was isolated from E. coli H560, and relaxed PUC18 plasmed was used as substrate. The activities as regards inhibition of DNA gyrase activity, expressed as maximum non-effective concentration of the test compound (MNC in μg/ml) are compiled in the following Table 4: […]

[2] = tested on: E. coli DC2; assay: Antibacterial activity in vitro (MIC, agar dilution); type: cell-based; conditions: Escherichia coli, agar dilution (BB2 + 1% Isovitalex + 7.5% sheep blood + metadione), inoculum 10^4 CFU/spot, read-out: minimum inhibitory concentration (MIC)
[3] = tested on: S. aureus 25923; assay: as above; type: cell-based; conditions: Staphylococcus aureus, agar dilution (BB2 + 1% Isovitalex + 7.5% sheep blood + metadione), inoculum 10^4 CFU/spot, read-out: minimum inhibitory concentration (MIC)
Description: (§1) In the following table there are complied the minimum inhibitory concentrations (MIC; μg/ml) of some representative compounds of formula I against a series of pathogenic microorganisms.
(§2) Agar dilution (BB2 + 1% Isovitalex + 7.5% sheep blood + metadione),
(§3) Inoculum: 10^4 CFU/spot;

[4] = tested on: E. coli B; assay: as above; type: cell-based; conditions: Escherichia coli, agar dilution (BB2 + 1% Isovitalex + 7.5% sheep blood + metadione), inoculum 10^4 CFU/spot, read-out: minimum inhibitory concentration (MIC)
Description: as §1, §2, §3

[5] = tested on: S. pyogenes 15; assay: as above; type: cell-based; conditions: Streptococcus pyogenes, agar dilution (BB2 + 1% Isovitalex + 7.5% sheep blood + metadione), inoculum 10^4 CFU/spot, read-out: minimum inhibitory concentration (MIC)
Description: as §1, §2, §3

[6] = tested on: S. faecalis 6; assay: as above; type: cell-based; conditions: Enterococcus faecalis, agar dilution (BB2 + 1% Isovitalex + 7.5% sheep blood + metadione), inoculum 10^4 CFU/spot, read-out: minimum inhibitory concentration (MIC)
Description: as §1, §2, §3

[7] = tested on: S. aureus 887; assay: as above; type: cell-based; conditions: Staphylococcus aureus, agar dilution (BB2 + 1% Isovitalex + 7.5% sheep blood + metadione), inoculum 10^4 CFU/spot, read-out: minimum inhibitory concentration (MIC)
Description: as §1, §2, §3

[8] = tested on: B. catarrhalis RA 117; assay: as above; type: cell-based; conditions: Moraxella catarrhalis, RA117, agar dilution (BB2 + 1% Isovitalex + 7.5% sheep blood + metadione), inoculum 10^4 CFU/spot, read-out: minimum inhibitory concentration (MIC)
Description: as §1, §2, §3

[9] = tested on: N. meningitidis 69480; assay: as above; type: cell-based; conditions: Neisseria meningitidis, agar dilution (BB2 + 1% Isovitalex + 7.5% sheep blood + metadione), inoculum 10^4 CFU/spot, read-out: minimum inhibitory concentration (MIC)
[10] = tested on: S. filipinensis IFO12860; assay: Streptomycin sensitivity of S. filipinensis IFO12860; type: cell-based; conditions: Streptomyces filipinensis, IFO12860, read-out: Streptomycin sensitivity (M.I.C.)
Experimental: (§4) The taxonomic studies were done according to the procedure adopted by the International Streptomyces Project (ISP) using the media recommended by Shining, E. B. and D. Gottlieb (Method for characterization of Streptomyces species; Intern. J. Syst. Bact. 16:313-340, 1966) and by Waksman, S. A. (Classification, identification and description of genera and species; in The Actinomycetes Vol. II; The Williams and Wilkins Co., Baltimore, 1961). All cultures were incubated at 27° C. for 15 days. The colour scheme in the Colour Harmony Manual (4th ed., 1958; Container Corporation of America, Chicago) was used to describe the pigmentation of the colonies. Sodium chloride tolerance of the strains and their growth at various temperatures were tested on ISP medium No. 3 (Difco) containing 0.15% yeast extract; and streptomycin sensitivity of the strains were tested on ISP medium No. Z (Difco).

[11] = tested on: strain NR0484; assay: Streptomycin sensitivity of strain NR0484; type: cell-based, Streptomyces sp. NR0484 (Streptomyces filipinensis); conditions: Streptomyces, ISP medium No. Z (Difco), read-out: Streptomycin sensitivity (M.I.C.)
Experimental: as §4

[12] = Physicochemical properties of compound Ia

Compound | maximum non-effective concentration of the test compound (MNC) [1] [µg/mL] | MIC [2] [µg/mL] | MIC [3] [µg/mL] | MIC [4] [µg/mL] | MIC [5] [µg/mL] | MIC [6] [µg/mL] | MIC [7] [µg/mL] | MIC [8] [µg/mL] | MIC [9] [µg/mL] | further results
COC(=O)[C@@H]1CSCc2c(OC(C)=O)cc(OC(C)=O)c(C)c2C(=O)OC[C@H](N)C(=O)N1 [Example 5, methyl (4R,7S)-12,14-diacetoxy-7-amino-1,3,4,5,6,7,8,10-octahydro-11-methyl-6,10-dioxo-9,2,5-benzoxathiaazacyclododecine-4-carboxylate] | 10 | – | – | – | – | – | – | – | – | –
COC(=O)[C@@H]1CSCc2c(O)cc(OC)cc2C(=O)OCCC(=S)N1 [Example 101, methyl (4R)-1,3,4,5,6,7,8,10-octahydro-14-hydroxy-12-methoxy-10-oxo-6-thioxo-9,2,5-benzoxathiaazacyclododecine-4-carboxylate] | 0.1 | 64 | 16 | 64 | 16 | 32 | 16 | 4 | 8 | –
C=CCNC(=O)[C@@H]1CSCc2c(O)cc(OC)c(C)c2C(=O)OC[C@H](NC(=O)OC(C)(C)C)C(=O)N1 [Example 84, (4R,7S)-7-tert-butoxycarbonylamino-1,3,4,5,6,7,8,10-octahydro-14-hydroxy-l2-methoxy-11-methyl-6,10-dioxo-9,2,5-benzoxathiaazacyclododecine-4-carboxylic acid allylamide] | 0.1 | > 128 | 32 | > 128 | 16 | 32 | 16 | 4 | 4 | –
Cc1c(O)cc(O)c2c1C(=O)OC[C@H](N)C(=O)N[C@H](C(=O)O)CSC2 [Example 4, (4R,7S)-7-amino-1,3,4,5,6,7,8,10-octahydro-12,14-dihydro-11-methyl-6,10-dioxo-9,2,5-benzoxathiaazacyclododecine-4-carboxylic acid] | 1 | – | – | – | – | – | – | – | – | –
CCOC(=O)[C@@H]1CSCc2c(O)cc(OC)c(C)c2C(=O)OC[C@H](NC(C)=S)C(=O)N1 [Example 102, ethyl (4R,7S)-1,3,4,5,6,7,8,10-octahydro-14-hydroxy-12-methoxy-11-methyl-6,10-dioxo-7-thioacetamido-9,2,5-benzoxathiaazacyclododecine-4-carboxylate] | 0.25 | 64 | 16 | 64 | 8 | 16 | 8 | 2 | 2 | –
Cc1c(O)cc(O)c2c1C(=O)OC[C@H](NC(=O)OC(C)(C)C)C(=O)N[C@H](C(=O)O)CSC2 [Example 3, (4R,7S)-7-(L-t-butoxyformamido)-1,3,4,5,6,7,8,10-octahydro-12,14-dihydroxy-11-methyl-6,10-dioxo-9,2,5-benzoxathiaazacyclododecine-4-carboxylic acid] | 5 | – | – | – | – | – | – | – | – | –
CO/N=C(\C(=O)N[C@H]1COC(=O)c2c(C)c(OC(C)=O)cc(OC(C)=O)c2CSC[C@@H](C(=O)OC)NC1=O)c1csc(N)n1 [Example 10, methyl (4R,7S)-12,14-diacetoxy-7-[(Z)-2-(2-amino-4-thiazolyl) -2-(methoxyimino)acetamido]-1,3,4,5,6,7,8,10-octahydro-11-methyl-6,10-dioxo-9,2,5-benzoxathiaazacyclododecine-4-carboxylate] | 10 | – | – | – | – | – | – | – | – | –
CCOC(=O)[C@@H]1CSCc2c(O)cc(OC)c(C)c2C(=O)OC[C@H](NC=O)C(=O)N1 [Example 69, ethyl (4R,7S)-7-formamido-1,3,4,5,6,7,8,10-octahydro-14-hydroxy-12-methoxy-11-methyl-6,10-dioxo-9,2,5-benzoxathiaazacyclododecine-4-carboxylate] | 0.05 | 16 | 128 | 32 | 4 | 16 | 32 | 4 | – | –
COC(=O)N[C@H]1COC(=O)c2c(C)c(OC)cc(O)c2CSC[C@@H](C(=O)OC)NC1=O [Example 137, Methyl (4R,7S)-1,3,4,5,6,7,8,10-octahydro-14-hydroxy-12-methoxy-4-methoxycarbonyl-11-methyl-6,10-dioxo-9,2,5-benzoxathiaazacyclododecine-7-carbamate] | 0.2 | 64 | 128 | 64 | 8 | 64 | 32 | 4 | 8 | –
COC(=O)[C@@H]1CSCc2c(O)cc(O)c(C)c2C(=O)OC[C@H](NC(=O)OC(C)(C)C)C(=O)N1 [Example 2, t-butyl (4R,7S)-1,3,4,5,6,7,8,10-octahydro-12,14-dihydroxy-4-methoxycarbonyl-11-methyl-6,10-dioxo-9,2,5-benzoxathiaazacyclododecine-7-carbamate] | 0.1 | – | – | – | – | – | – | – | – | maximum non-effective concentration of the test compound (MNC) ([1]; listed as 13): 0.05 µg/mL
[H]/N=C(/N)N[C@H]1[C@H](O)[C@@H](O)[C@H](O[C@@H]2O[C@@H](C)[C@](O)(C=O)[C@H]2O[C@@H]2O[C@@H](CO)[C@H](O)[C@@H](O)[C@@H]2NC)[C@@H](N/C(N)=N\[H])[C@@H]1O [Streptomycin] | – | – | – | – | – | – | – | – | – | MIC [10]: 6300 µg/mL (≈ 10.8 mM); MIC [11]: 6300 µg/mL (≈ 10.8 mM)
Cc1c(O)cc(O)c2c1C(=O)OC[C@H](NC(=O)[C@@H]1[C@H](O)CCN1C(=O)[C@@H](N)CO)C(=O)N[C@H](C(=O)N[C@@H](C)C(=O)O)CSC2 [Example 12, N-[[(4R,7S)-1,3,4,5,6,7 8,10-octahydro-12,14-dihydroxy-7-[[(3R)-3-hydroxy-1-L-seryl-L-prolyl]amino]-11-methyl-6,10-dioxo-9,2,5-benzoxathiaazacyclododecin-4-yl]carbonyl]-L-alanine] | 5 | – | – | – | – | – | – | – | – | solubility (in words) [12]: water soluble
Cc1c(O)cc(O)c2c1C(=O)OC[C@H](N)C(=O)NCCSC2 [Example 9, (S)-7-amino-4,5,7,8-tetrahydro-12,14-dihydroxy-11-methyl-9,2,5-benzoxathiaazacyclododecine-6,10(1H,3H)-dione] | 1 | – | – | – | – | – | – | – | – | –
COC(=O)[C@@H]1CSCc2c(O)cc(OC)c(C)c2C(=O)OC[C@H](O)C(=O)N1 [Example 41, methyl (4R,7S)-1,3,4,5,6,7,8,10-octahydro-7,14-dihydroxy-12-methoxy-11-methyl-6,10-dioxo-9,2,5-benzoxathiaazacyclododecine-4-carboxylate] | 0.1 | – | 32 | 128 | 16 | 32 | 32 | 4 | 8 | –
COC(=O)[C@@H]1CSCc2c(O)cc(O)c(C)c2C(=O)OC[C@H](N)C(=O)N1 [Example 6, methyl (4R,7S)-7-amino-1,3,4,5,6,7,8,10-octahydro-12,14-dihydro-11-methyl-6,10-dioxo-9,2,5-benzoxathiaazacyclododecine-4-carboxylate] | 2 | – | – | – | – | – | – | – | – | –
